Results: US10918651B2, “Method for lowering thyrotropin levels in adults” (University of Louisiana at Lafayette, priority 2016, dated 2021)

How the values were obtained:
[1] = in vivo; cited from earlier work
[2] = system: thyroid stimulating hormone (TSH)
Description: A study was performed of this invention using forty-eight male college-aged volunteers. The participants were divided into 4 groups of 12 subjects. The groups reported to the lab after an overnight fast and were then administered the following: 200 mg of Caffeine, 250 mg of A-GPC, 500 mg of A-GPC or placebo. One hour and two hours post administration blood was drawn from a vein in the antecubital space into a serum separator tube, this was allowed to stand for 15 minutes, then centrifuged and the serum drawn off and frozen at −35 degrees Celsius for later evaluation.
At the conclusion of data collection, the serum aliquots were thawed and a commercially available high-sensitivity ELISA was uses to quantify TSH levels (Eagle Biosciences TSH Ultrasensitive ELISA kit). Samples were tested in duplicate with inter and intra place CV % of less than 10. A repeated measures Anova was used to assess TSH level by group.

dopamine receptors = details: chronic administration, aging mice; cited from earlier work

Row | SMILES | crossing the blood brain barrier [1] | incorporation into brain phospholipids after administration [1] | TSH blood levels (effect) ([2]; 250 mg A-GPC, single administration) | TSH level, group average ([2]; 500 mg A-GPC group, 12 males) | number of males exhibiting TSH levels lower than 2.0 ([2]; 500 mg A-GPC group, 12 males) | dopamine receptors in the brain (dopamine receptors)
1 | C[N+](C)(C)CCOP(=O)([O-])OC[C@H](O)CO [A-GPC, Alpha Glycerylphosphoryl Choline] | capable of crossing the blood brain barrier | incorporated into brain phospholipids within twenty-four hours | insufficient to reduce blood TSH | 2.3 | 5 of the 12 | 
2 | C[N+](C)(C)CCOP(=O)(O)OP(=O)([O-])OC[C@H]1O[C@@H](n2ccc(N)nc2=O)[C@H](O)[C@@H]1O [CDP-choline] |  |  |  |  |  | increase dopamine receptors in the brain
